Measurements from patent US12599136B2, “Substituted isophthalic acid diamides and their use as herbicides” (Bayer Aktiengesellschaft, priority 2020, dated 2026).

Columns and labels:
Assay type in all cases: in vivo
Abutilon theophrasti [1] = experiment: Pre-emergence herbicidal action against ABUTH; conditions: visual score after 3 weeks vs untreated controls
From the text: (§1) Seeds of monocotyledonous and dicotyledonous weed plants and crop plants are laid out in sandy loam soil in wood-fiber pots and covered with soil. The compounds of the invention, formulated in the form of wettable powders (WP) or as emulsion concentrates (EC), are then applied to the surface of the covering soil in the form of an aqueous suspension or emulsion at a water application rate equivalent to 600 to 800 l/ha, with addition of 0.2% wetting agent. After the treatment, the pots are placed in a greenhouse and kept under good growth conditions for the trial plants. The damage to the test plants is scored visually after a test period of 3 weeks by comparison with untreated controls (herbicidal activity in percent (%): 100% activity=the plants have died, 0% activity=like control plants). […] The tables below illustrate, in an illustrative manner, the post-emergence herbicidal action of the compounds of the invention, the herbicidal activity being stated in percent.

Alopecurus myosuroides [2] = experiment: Pre-emergence herbicidal action against ALOMY; conditions: visual score after 3 weeks vs untreated controls
From the text: as §1

Amaranthus retroflexus [3] = experiment: Pre-emergence herbicidal action against AMARE; conditions: visual score after 3 weeks vs untreated controls
From the text: as §1

Echinochloa crus-galli [4] = experiment: Pre-emergence herbicidal action against ECHCG; conditions: 80 g/ha; visual score after 3 weeks vs untreated controls
From the text: as §1

Matricaria inodora [5] = experiment: Pre-emergence herbicidal action against MATIN; conditions: visual score after 3 weeks vs untreated controls
From the text: as §1

Setaria viridis [6] = experiment: Pre-emergence herbicidal action against SETVI
From the text: as §1

Abutilon theophrasti [7] = experiment: Post-emergence herbicidal action against ABUTH
Protocol: (§2) Seeds of monocotyledonous and dicotyledonous weed and crop plants are laid out in sandy loam soil in wood-fiber pots, covered with soil and cultivated in a greenhouse under good growth conditions. 2 to 3 weeks after sowing, the test plants are treated at the one-leaf stage. The compounds of the invention, formulated in the form of wettable powders (WP) or as emulsion concentrates (EC), are then sprayed onto the green parts of the plants in the form of an aqueous suspension or emulsion at a water application rate equivalent to 600 to 800 l/ha, with addition of 0.2% wetting agent. After the test plants have been left to stand in the greenhouse under optimal growth conditions for about 3 weeks, the action of the preparations is assessed visually in comparison to untreated controls (herbicidal action in percent (%): 100% activity=the plants have died, 0% activity=like control plants). […] The tables below illustrate, in an illustrative manner, the post-emergence herbicidal action of the compounds of the invention, the herbicidal activity being stated in percent.

Amaranthus retroflexus [8] = experiment: Post-emergence herbicidal action against AMARE; conditions: visual assessment about 3 weeks after treatment
Protocol: as §2

Echinochloa crus-galli [9] = experiment: Post-emergence herbicidal action against ECHCG; conditions: 20 g/ha, visual assessment about 3 weeks after treatment
Protocol: as §2

Pharbitis purpurea = experiment: Post-emergence herbicidal action against PHBPU; conditions: 20 g/ha, visual assessment about 3 weeks after treatment
Protocol: as §2

Setaria viridis [10] = experiment: Post-emergence herbicidal action against SETVI; conditions: visual assessment about 3 weeks after treatment
Protocol: as §2

Veronica persica [11] = experiment: Post-emergence herbicidal action against VERPE; conditions: 20 g/ha, visual assessment about 3 weeks after treatment
Protocol: as §2

Viola tricolor [12] = experiment: Post-emergence herbicidal action against VIOTR
Protocol: as §2

Veronica persica [13] = experiment: Pre-emergence herbicidal action against VERPE; conditions: 80 g/ha
From the text: as §1

Viola tricolor [14] = experiment: Pre-emergence herbicidal action against VIOTR
From the text: as §1

Alopecurus myosuroides [15] = experiment: Post-emergence herbicidal action against ALOMY
Protocol: as §2

Matricaria inodora [16] = experiment: Post-emergence herbicidal action against MATIN; conditions: visual assessment about 3 weeks after treatment
Protocol: as §2

Avena fatua [17] = experiment: Post-emergence herbicidal action against AVEFA; conditions: 20 g/ha, visual assessment about 3 weeks after treatment
Protocol: as §2

Digitaria sanguinalis = experiment: Pre-emergence herbicidal action against DIGSA
From the text: as §1

Avena fatua [18] = experiment: Pre-emergence herbicidal action against AVEFA; conditions: 80 g/ha; visual score after 3 weeks vs untreated controls
From the text: as §1

Row | Compound | Pre-emergence action against ABUTH (Abutilon theophrasti [1]; 80 g/ha) | Pre-emergence action against ALOMY (Alopecurus myosuroides [2]; 80 g/ha) | Pre-emergence action against AMARE (Amaranthus retroflexus [3]; 20 g/ha) | Pre-emergence action against AMARE (Amaranthus retroflexus [3]; 80 g/ha) | Pre-emergence action against ECHCG (Echinochloa crus-galli [4]) | Pre-emergence action against MATIN (Matricaria inodora [5]; 20 g/ha) | Pre-emergence action against MATIN (Matricaria inodora [5]; 80 g/ha) | Pre-emergence action against SETVI (Setaria viridis [6]; 80 g/ha) | Post-emergence action against ABUTH (Abutilon theophrasti [7]; 5 g/ha) | Post-emergence action against ABUTH (Abutilon theophrasti [7]; 20 g/ha) | Post-emergence action against AMARE in % (Amaranthus retroflexus [8]; 5 g/ha) | Post-emergence action against AMARE in % (Amaranthus retroflexus [8]; 20 g/ha) | Post-emergence action against ECHCG in % (Echinochloa crus-galli [9]) | Post-emergence action against SETVI in % (Setaria viridis [10]; 20 g/ha) | Post-emergence action against VERPE in % (Veronica persica [11]) | Post-emergence action against VIOTR in % (Viola tricolor [12]; 20 g/ha) | Pre-emergence action against VIOTR (Viola tricolor [14]; 80 g/ha) | Post-emergence action against ALOMY (Alopecurus myosuroides [15]; 20 g/ha) | Post-emergence action against MATIN in % (Matricaria inodora [16]; 20 g/ha) | Pre-emergence action against ABUTH (Abutilon theophrasti [1]; 20 g/ha) | also measured
1 | Cc1c(C(=O)Nc2nnnn2C)ccc(C(F)F)c1C(=O)N(C)C [Example 1-50] | 100% | 80% | 90% | 100% | 80% | 80% | 90% | 80% | 80% | 90% | 90% | 100% | 80% | 80% | 80% | 80% | – | – | – | – | Post-emergence action against PHBPU in % (Pharbitis purpurea): 80%
2 | CCN(C)C(=O)c1c(C(F)F)ccc(C(=O)Nc2nnnn2C)c1C [Example 1-51] | 100% | 80% | 80% | 100% | 90% | – | 90% | 80% | 80% | 80% | 100% | 100% | 80% | 80% | 80% | 90% | 90% | 80% | 80% | – | Pre-emergence action against VERPE (Veronica persica [13]): 80%; Post-emergence action against PHBPU in % (Pharbitis purpurea): 90%; Post-emergence action against SETVI in % (Setaria viridis [10]; 5 g/ha): 80%; Post-emergence action against VIOTR in % (Viola tricolor [12]; 5 g/ha): 80%
3 | CCN(CC)C(=O)c1c(C(F)F)ccc(C(=O)Nc2nnnn2C)c1C [Example 1-59] | 100% | 90% | 100% | 100% | – | – | 90% | 100% | 90% | 90% | 100% | 100% | 80% | 90% | 90% | 80% | – | 90% | 90% | – | Pre-emergence action against VERPE (Veronica persica [13]): 90%; Post-emergence action against ALOMY (Alopecurus myosuroides [15]; 5 g/ha): 90%; Post-emergence action against AVEFA in % (Avena fatua [17]): 90%; Post-emergence action against SETVI in % (Setaria viridis [10]; 5 g/ha): 90%
4 | Cn1nnnc1NC(=O)c1ccc(C(F)(F)F)c(C(=O)N(C2CC2)C2CC2)c1Cl [Example 1-144] | 100% | – | 90% | 100% | – | 90% | 100% | – | – | – | 90% | 90% | – | – | – | – | 100% | – | – | 80% | Pre-emergence action against DIGSA (Digitaria sanguinalis; 80 g/ha): 100%; Pre-emergence action against VIOTR (Viola tricolor [14]; 20 g/ha): 80%
5 | Cn1nnnc1NC(=O)c1ccc(C(F)F)c(C(=O)N(C2CC2)C2CC2)c1Cl [Example 1-175] | 100% | – | 80% | 100% | – | 90% | 90% | – | 80% | 90% | 100% | 100% | – | – | – | – | 90% | – | 90% | 90% | –
6 | CCOC(=O)[C@@H]1CCCN1C(=O)c1c(C(F)(F)F)ccc(C(=O)Nc2nnnn2C)c1Cl [Example 1-400] | 100% | – | 90% | 100% | – | – | 90% | – | – | – | – | – | – | – | – | – | – | – | – | – | Pre-emergence action against DIGSA (Digitaria sanguinalis; 20 g/ha): 100%; Pre-emergence action against DIGSA (Digitaria sanguinalis; 80 g/ha): 100%
7 | CCOC(=O)[C@@H]1CCCN1C(=O)c1c(C(F)F)ccc(C(=O)Nc2nnnn2C)c1Cl [Example 1-402] | – | – | – | 100% | – | – | 90% | – | – | – | – | 90% | – | – | – | – | – | – | – | – | –
8 | CCN(CC)C(=O)c1c(C(F)F)ccc(C(=O)Nc2nnnn2CC)c1C [Example 2-59] | 100% | 90% | 80% | 100% | 90% | 90% | 100% | – | 90% | 90% | 100% | 100% | 90% | 90% | 90% | 90% | 100% | 90% | 90% | 100% | Pre-emergence action against VERPE (Veronica persica [13]): 90%; Pre-emergence action against VIOTR (Viola tricolor [14]; 20 g/ha): 100%; Post-emergence action against MATIN in % (Matricaria inodora [16]; 5 g/ha): 80%; Post-emergence action against SETVI in % (Setaria viridis [10]; 5 g/ha): 90%; Post-emergence action against VIOTR in % (Viola tricolor [12]; 5 g/ha): 80%
9 | CCn1nnnc1NC(=O)c1ccc(C(F)(F)F)c(C(=O)N(C2CC2)C2CC2)c1Cl [Example 2-144] | 100% | – | – | 100% | – | – | 100% | – | – | – | 90% | 90% | – | – | – | – | 100% | – | 80% | 90% | –
10 | CCn1nnnc1NC(=O)c1ccc(C(F)F)c(C(=O)N(C2CC2)C2CC2)c1Cl [Example 2-175] | 100% | 90% | 100% | 100% | – | 90% | 100% | – | 80% | 90% | 100% | 100% | – | – | – | 80% | 90% | – | – | 100% | Pre-emergence action against ALOMY (Alopecurus myosuroides [2]; 20 g/ha): 80%
11 | CCn1nnnc1NC(=O)c1ccc(Br)c(C(=O)N(C)C)c1Cl [Example 2-191] | 100% | 100% | 100% | 100% | 100% | 90% | 100% | 100% | 90% | 90% | 100% | 100% | – | 100% | – | 80% | 80% | 100% | – | 90% | Pre-emergence action against ALOMY (Alopecurus myosuroides [2]; 20 g/ha): 90%; Pre-emergence action against AVEFA (Avena fatua [18]): 90%; Pre-emergence action against SETVI (Setaria viridis [6]; 20 g/ha): 100%; Post-emergence action against PHBPU in % (Pharbitis purpurea): 80%; Post-emergence action against SETVI in % (Setaria viridis [10]; 5 g/ha): 100%
